Measured values reported in the NIST ThermoML archive (doi:10.1021/je200964m).
Where “and” joins values, the source holds several entries; their conditions need not be identical. Equal entries are not always repeated. ± gives the expanded uncertainty stated by the source.

Tests used:
[1] = molar heat capacity at constant pressure; mn = molality of the nth substance listed, in mol/kg; conditions: 298.15 K, 100 kPa, Liquid
[2] = mn = molality of the nth substance listed, in mol/kg; conditions: 298.15 K, 100 kPa, Liquid, Vibrating tube method

CCCC(=O)[O-].[Na+] [sodium butyrate] + O
[1], Flow calorimetry
Conditions | molar heat capacity at constant pressure [J/K/mol]
m1 = 0.01976 | 75.41 ± 0.14
m1 = 0.04005 | 75.47 ± 0.14
m1 = 0.06005 | 75.54 ± 0.14
m1 = 0.08053 | 75.61 ± 0.14
m1 = 0.102 | 75.68 ± 0.14
m1 = 0.2495 | 76.19 ± 0.14
m1 = 0.4997 | 77.12 ± 0.14
m1 = 0.7508 | 78.09 ± 0.14
m1 = 1 | 79.11 ± 0.14
m1 = 1.993 | 83.42 ± 0.15
m1 = 4 | 91.23 ± 0.17
m1 = 5.997 | 97.99 ± 0.17

[2]
Conditions | mass density [kg/m3]
m1 = 0.01976 | 997.868 ± 0.059
m1 = 0.04005 | 998.697 ± 0.059
m1 = 0.06005 | 999.507 ± 0.058
m1 = 0.08053 | 1000.32 ± 0.058
m1 = 0.102 | 1001.17 ± 0.058
m1 = 0.2495 | 1006.98 ± 0.059
m1 = 0.4997 | 1016.49 ± 0.06
m1 = 0.7508 | 1025.47 ± 0.061
m1 = 1 | 1034.04 ± 0.062
m1 = 1.993 | 1064.55 ± 0.073
m1 = 4 | 1109.06 ± 0.1
m1 = 5.997 | 1136.24 ± 0.13

CC(=O)[O-].[Na+] [sodium ethanoate] + O
[1], Flow calorimetry
Conditions | molar heat capacity at constant pressure [J/K/mol]
m1 = 0.01999 | 75.34 ± 0.14
m1 = 0.02177 | 75.33 ± 0.14
m1 = 0.03988 | 75.34 ± 0.14
m1 = 0.04259 | 75.33 ± 0.14
m1 = 0.06003 | 75.33 ± 0.14
m1 = 0.06004 | 75.33 ± 0.14
m1 = 0.08011 | 75.34 ± 0.14
m1 = 0.08018 | 75.34 ± 0.14
m1 = 0.1002 | 75.34 ± 0.14
m1 = 0.25 | 75.37 ± 0.14
m1 = 0.4956 | 75.48 ± 0.14
m1 = 0.4998 | 75.48 ± 0.14
m1 = 0.9999 | 75.86 ± 0.14
m1 = 1.997 | 77.13 ± 0.14
m1 = 2.003 | 77.13 ± 0.14
m1 = 4.532 | 81.99 ± 0.15

[2]
Conditions | mass density
m1 = 0.01999 | 997.898 ± 0.06 kg/m3
m1 = 0.02177 | 997.982 ± 0.059 kg/m3
m1 = 0.03988 | 998.731 ± 0.059 kg/m3
m1 = 0.04259 | 998.856 ± 0.059 kg/m3
m1 = 0.06003 | 999.574 ± 0.059 kg/m3
m1 = 0.06004 | 999.577 ± 0.059 kg/m3
m1 = 0.08011 | 1000.41 ± 0.059 kg/m3
m1 = 0.08018 | 1000.42 ± 0.059 kg/m3
m1 = 0.1002 | 1001.25 ± 0.059 kg/m3 and 1001.25 ± 0.06 kg/m3
m1 = 0.25 | 1007.38 ± 0.06 kg/m3
m1 = 0.4956 | 1017.13 ± 0.061 kg/m3
m1 = 0.4998 | 1017.29 ± 0.061 kg/m3
m1 = 0.9999 | 1036.14 ± 0.064 kg/m3
m1 = 1.997 | 1070.48 ± 0.071 kg/m3
m1 = 2.003 | 1070.59 ± 0.071 kg/m3
m1 = 4.532 | 1141.59 ± 0.11 kg/m3

O=C[O-].[Na+] [sodium methanoate] + O
Conditions | mass density, [2] [kg/m3] | molar heat capacity at constant pressure, [1] [J/K/mol]
m1 = 0.00974 | 997.482 ± 0.059 | 74.69 ± 0.25
m1 = 0.01004 | 997.512 ± 0.059 | 74.71 ± 0.25
m1 = 0.02003 | 997.907 ± 0.06 | 74.79 ± 0.25
m1 = 0.02065 | 997.932 ± 0.06 | 74.7 ± 0.25
m1 = 0.04058 | 998.75 ± 0.06 | 74.71 ± 0.25
m1 = 0.04064 | 998.753 ± 0.06 | 74.79 ± 0.25
m1 = 0.06027 | 999.589 ± 0.059 | 74.76 ± 0.25
m1 = 0.06153 | 999.685 ± 0.059 | 74.66 ± 0.25
m1 = 0.08026 | 1000.45 ± 0.06 | 74.73 ± 0.25
m1 = 0.08098 | 1000.47 ± 0.06 | 74.63 ± 0.25
m1 = 0.1002 | 1001.25 ± 0.059 | 74.72 ± 0.25
m1 = 0.1006 | 1001.27 ± 0.059 | 74.62 ± 0.25
m1 = 0.1998 | 1005.36 ± 0.06 | 74.62 ± 0.25
m1 = 0.25 | 1007.39 ± 0.06 | 74.49 ± 0.25
m1 = 0.5003 | 1017.41 ± 0.062 | 74.3 ± 0.25
m1 = 0.5005 | 1017.34 ± 0.062 | 74.41 ± 0.25
m1 = 0.75 | 1027.24 ± 0.063 | 74.33 ± 0.25
m1 = 0.7507 | 1027.17 ± 0.063 | 74.18 ± 0.24
m1 = 1 | 1036.61 ± 0.065 | 73.86 ± 0.24
m1 = 1.008 | 1037.01 ± 0.064 | 74.26 ± 0.25
m1 = 2 | 1072.42 ± 0.077 | 74.32 ± 0.24
m1 = 2.576 | 1092.07 ± 0.084 | 75.46 ± 0.25
m1 = 3.968 | 1134.81 ± 0.1 | 75.93 ± 0.25
m1 = 4 | 1135.38 ± 0.1 | 75.98 ± 0.25
m1 = 5.998 | 1188.91 ± 0.14 | 78.43 ± 0.26
m1 = 6.036 | 1190.2 ± 0.14 | 77.81 ± 0.26
m1 = 8.011 | 1235.13 ± 0.17 | 81.13 ± 0.27
m1 = 10.01 | 1275.62 ± 0.2 | 84.02 ± 0.28

CCC(=O)[O-].[Na+] [sodium propanoate] + O
[1], Flow calorimetry
Conditions | molar heat capacity at constant pressure [J/K/mol]
m1 = 0.01002 | 75.35 ± 0.14
m1 = 0.02029 | 75.37 ± 0.14
m1 = 0.04064 | 75.41 ± 0.14
m1 = 0.06027 | 75.44 ± 0.14
m1 = 0.08026 | 75.47 ± 0.14
m1 = 0.1002 | 75.51 ± 0.14
m1 = 0.1998 | 75.69 ± 0.14
m1 = 0.5005 | 76.31 ± 0.14
m1 = 0.7511 | 76.87 ± 0.14
m1 = 1 | 77.48 ± 0.14
m1 = 1.982 | 80.19 ± 0.14
m1 = 3.972 | 86.51 ± 0.16
m1 = 5.982 | 92.7 ± 0.17
m1 = 8.004 | 98.52 ± 0.17

[2]
Conditions | mass density [kg/m3]
m1 = 0.01002 | 997.478 ± 0.059
m1 = 0.02029 | 997.9 ± 0.059
m1 = 0.04064 | 998.74 ± 0.059
m1 = 0.06027 | 999.536 ± 0.059
m1 = 0.08026 | 1000.38 ± 0.06
m1 = 0.1002 | 1001.21 ± 0.059
m1 = 0.1998 | 1005.24 ± 0.059
m1 = 0.5005 | 1016.94 ± 0.061
m1 = 0.7511 | 1026.37 ± 0.062
m1 = 1 | 1035.33 ± 0.063
m1 = 1.982 | 1067.68 ± 0.074
m1 = 3.972 | 1119.87 ± 0.1
m1 = 5.982 | 1158.32 ± 0.13
m1 = 8.004 | 1185.89 ± 0.16
